PubChem BioAssay AID1996
Values after ≈ are worked out from the molar mass of the structure shown.

Details: buffer; pH 7.4; 200.0 µM

Q: For COC(=O)c1sccc1NC(=S)Nc1ccc(F)cc1F, which solubility kinetic is on record?
A: 42 µg/mL (≈ 128 µM)

Q: For N/C(=N\OC(=O)c1cccs1)c1cccnc1, which solubility kinetic is on record?
A: 33.1 µg/mL (≈ 134 µM)

Q: With O=C(Cc1ccc(Br)cc1)Nc1ccccc1N1CCCC1 as the compound, how does the solubility kinetic read?
A: 2.6 µg/mL (≈ 7.24 µM)

Q: With CCOc1ccc(C(=O)NCCNC(=O)c2ccc(OCC)cc2)cc1 as the compound, how does the solubility kinetic read?
A: 1.5 µg/mL (≈ 4.21 µM)

Q: Which solubility kinetic does the source give for OC(CCN1CCOCC1)c1ccccc1 (stereo not given) here?
A: 31.3 µg/mL (≈ 141 µM)

Q: Which solubility kinetic does the source give for CC(=O)Nc1ccc(-c2csc(NC(=O)CCNC(=O)c3ccco3)n2)cc1 here?
A: 11.7 µg/mL (≈ 29.4 µM)

Q: With Clc1cccc(Cl)c1-c1noc(CN2CCOCC2)n1 as the compound, how does the solubility kinetic read?
A: 31.8 µg/mL (≈ 101 µM)

Q: Which solubility kinetic does the source give for Cc1cccc(C)c1NC(=O)CNC(=O)c1ccc2c(c1)NC(=O)CS2 here?
A: 41 µg/mL (≈ 111 µM)

Q: For CCc1nn(CC(=O)N2CCC(C)CC2)c(=O)c2cccn12, which solubility kinetic is on record?
A: > 45.4 µg/mL

Q: With O=C(NC1CC1)c1sc2cc(Cl)ccc2c1Cl as the compound, how does the solubility kinetic read?
A: 1.2 µg/mL (≈ 4.19 µM)

Q: Which solubility kinetic does the source give for Clc1ccc(-c2ccc(CN3CCCCC3)o2)cc1 here?
A: 30.1 µg/mL (≈ 109 µM)

Q: With CCOC(=O)N1CCN(Cc2ccc(O)c3ncccc23)CC1 as the compound, how does the solubility kinetic read?
A: 34.3 µg/mL (≈ 109 µM)

Q: With Br.Nc1nc2c(s1)CCc1ccccc1-2 as the compound, how does the solubility kinetic read?
A: 40.3 µg/mL

Q: With Cc1nc(C)c(C(=O)Nc2cccc(C)c2C)s1 as the compound, how does the solubility kinetic read?
A: > 39.1 µg/mL

Q: For Cc1ccc(CNc2ccc(N3CCOCC3)c(Cl)c2)cc1, which solubility kinetic is on record?
A: 1.7 µg/mL (≈ 5.37 µM)

Q: For Cc1cc(NCc2cccnc2)nc(N)n1, which solubility kinetic is on record?
A: > 32.3 µg/mL

Q: For COC(=O)c1nccnc1C(=O)Nc1ccccc1N1CCOCC1, which solubility kinetic is on record?
A: > 51.4 µg/mL

Q: Which solubility kinetic does the source give for COc1ccccc1CC(=O)Nc1ccc2c(C)cc(=O)oc2c1 here?
A: 3.6 µg/mL (≈ 11.1 µM)

Q: Which solubility kinetic does the source give for O=C(O)C(Cc1ccccc1)n1c(=S)[nH]c2ccccc2c1=O (stereo not given) here?
A: > 49 µg/mL

Q: With O=C(COC(=O)c1ccccc1Br)NCc1cccs1 as the compound, how does the solubility kinetic read?
A: > 53.1 µg/mL

Q: For CCc1ccccc1N1C(=O)C(Cl)=C(N2CCOCC2)C1=O, which solubility kinetic is on record?
A: 45.8 µg/mL (≈ 143 µM)

Q: Which solubility kinetic does the source give for COc1ccc(NC(=O)CNCc2ccc(Cl)cc2)cc1S(=O)(=O)N1CCOCC1.O=C(O)C(=O)O here?
A: > 81.6 µg/mL

Q: With COc1cccc(CN(C)C(=O)CCN=C2NS(=O)(=O)c3ccccc32)c1 as the compound, how does the solubility kinetic read?
A: > 58.1 µg/mL

Q: Which solubility kinetic does the source give for CCOc1ccc(NC(=S)N2CCCCCC2)cc1 here?
A: > 41.8 µg/mL

Q: With CC(=O)NC(c1ccc(C(C)C)cc1)c1c(O)ccc2ccccc12 (stereo not given) as the compound, how does the solubility kinetic read?
A: < 0.7 µg/mL

Q: With CSc1ccc(CN(C)CC(=O)NCc2ccccc2)cc1 as the compound, how does the solubility kinetic read?
A: 41 µg/mL (≈ 130 µM)

Q: For CC(=O)c1sc(C(C)(C)C)cc1NC(=O)CCC(=O)O, which solubility kinetic is on record?
A: > 44.6 µg/mL

Q: With CSc1nc2c(cc1C#N)C(=O)CC(C)(C)C2 as the compound, how does the solubility kinetic read?
A: 10.3 µg/mL (≈ 41.8 µM)

Q: Which solubility kinetic does the source give for CC(C)CC1NC(=O)N(CC(=O)Nc2ccc3c(c2)CCC3)C1=O (stereo not given) here?
A: 5.6 µg/mL (≈ 17 µM)

Q: For O=C1NS(=O)c2cc([N+](=O)[O-])cc([N+](=O)[O-])c21 (stereo not given), which solubility kinetic is on record?
A: > 38.6 µg/mL

Q: Which solubility kinetic does the source give for COc1ccccc1N1C(=O)c2cccc3cccc(c23)C1=O here?
A: < 0.6 µg/mL

Q: With O=C(NC(=S)Nc1cccc(O)c1)C1CCCCC1 as the compound, how does the solubility kinetic read?
A: > 41.8 µg/mL

Q: For CC(C)N1CCNCC1.Cl, which solubility kinetic is on record?
A: 23.1 µg/mL

Q: Which solubility kinetic does the source give for Cc1c(C(=O)N/N=C/c2ccoc2)cccc1[N+](=O)[O-] here?
A: > 41 µg/mL

Q: For CCN(C(=O)COC(=O)c1ccco1)c1cccc2ccccc12, which solubility kinetic is on record?
A: 47.4 µg/mL (≈ 147 µM)

Q: For C=CCNC(=S)Nc1nc2c(cc1C(=O)OCC)COC(C)(C)C2, which solubility kinetic is on record?
A: 3.1 µg/mL (≈ 8.87 µM)

Q: Which solubility kinetic does the source give for O=C(Nc1ccccc1)c1cccc(Cn2cc(C(F)(F)F)ccc2=O)c1 here?
A: 2 µg/mL (≈ 5.37 µM)

Q: With Cc1noc(C)c1COc1ccc(C(=O)NCc2cccs2)cc1 as the compound, how does the solubility kinetic read?
A: 16.5 µg/mL (≈ 48.2 µM)

Q: Which solubility kinetic does the source give for O=C(NCc1ccc(F)cc1F)Nc1cnccc1C(F)(F)F here?
A: > 49.7 µg/mL

Q: With O=C(NC(=S)Nc1ccccc1Br)C1CCCC1 as the compound, how does the solubility kinetic read?
A: 2.7 µg/mL (≈ 8.25 µM)

Q: Which solubility kinetic does the source give for O=C(CCCc1c[nH]c2ccccc12)NCc1cccs1 here?
A: 41.1 µg/mL (≈ 138 µM)

Q: With O=C(/C=C/c1ccco1)NCCCN1CCOCC1 as the compound, how does the solubility kinetic read?
A: > 39.6 µg/mL

Q: Which solubility kinetic does the source give for CCN(CC)CCC/C(=N\O)C(O)(c1ccccc1)c1ccccc1 here?
A: > 51.1 µg/mL

Q: With CCC(C)NC(=O)c1ccc(NC(=O)C2=C(C)OCCS2)cc1 (stereo not given) as the compound, how does the solubility kinetic read?
A: > 50.2 µg/mL

Q: Which solubility kinetic does the source give for CCc1c(C)nc(N2CCN(c3ccc(Cl)cc3)CC2)[nH]c1=O here?
A: 1.1 µg/mL (≈ 3.3 µM)

Q: With COc1ccc(CCn2c([S-])nc3ccccc3c2=O)cc1.[Na+] as the compound, how does the solubility kinetic read?
A: 1.5 µg/mL

Q: For CCc1ccc(OC(=O)CN2C(=O)c3ccccc3C2=O)cc1, which solubility kinetic is on record?
A: 39.3 µg/mL (≈ 127 µM)

Q: Which solubility kinetic does the source give for O=C(CCC(=O)c1ccc(Cl)cc1)NCc1ccccc1 here?
A: 14.3 µg/mL (≈ 47.4 µM)

Q: For O=C(COC(=O)COc1ccccc1)Nc1ccc(Cl)cn1, which solubility kinetic is on record?
A: 13.3 µg/mL (≈ 41.5 µM)

Q: For O=C(COC(=O)c1ccccn1)Nc1ccc2c(c1)OCCO2, which solubility kinetic is on record?
A: 44.4 µg/mL (≈ 141 µM)

Q: With CC(=O)Nc1nc2c(ccc3ccccc32)s1 as the compound, how does the solubility kinetic read?
A: 0.9 µg/mL (≈ 3.71 µM)

Q: For O=C(COC(=O)CSc1ccc(Cl)cc1)Nc1ccc2[nH]c(=O)[nH]c2c1, which solubility kinetic is on record?
A: 13.5 µg/mL (≈ 34.5 µM)

Q: With COc1ccc(NC(=O)CN(C)Cc2cccs2)cc1Cl as the compound, how does the solubility kinetic read?
A: 42.1 µg/mL (≈ 130 µM)

Q: With CC(C)c1ccccc1NC(=O)C1C2C=CC(C2)C1C(=O)O (stereo not given) as the compound, how does the solubility kinetic read?
A: 42.1 µg/mL (≈ 141 µM)

Q: With CN1CCN(S(=O)(=O)c2ccc(NC(=O)c3cccc(F)c3)cc2)CC1 as the compound, how does the solubility kinetic read?
A: > 56.6 µg/mL

Q: For O=C(COC(=O)c1cccc([N+](=O)[O-])c1)Nc1ncc(Br)s1, which solubility kinetic is on record?
A: 3.5 µg/mL (≈ 9.06 µM)

Q: With CCc1c(C)nc(SCc2cccnc2)[nH]c1=O as the compound, how does the solubility kinetic read?
A: > 39.2 µg/mL

Q: With Cc1cccc(-c2noc(C(C)NC(=O)c3ccco3)n2)c1 (stereo not given) as the compound, how does the solubility kinetic read?
A: 32.9 µg/mL (≈ 111 µM)

Q: For CCCN1CCC(NC(=O)Cc2ccc(C)cc2)CC1, which solubility kinetic is on record?
A: 39.7 µg/mL (≈ 145 µM)

Q: With NC(=O)C1CCN(C(=O)c2cc(-c3ccc(Cl)cc3)nc3ccccc23)CC1 as the compound, how does the solubility kinetic read?
A: > 59.1 µg/mL
